According to PubChem BioAssay (NCI):
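Each compound was tested at five concentrations against cells in 96-well plates for 48 hours. Here, GI50 denotes the concentration required for 50% inhibition of growth. Definition used: TGI = concentration required for complete inhibition of growth.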

Key:
Assay in all cases: inhibition of tumour cell growth, NCI panel, 48 h
HCC-2998 colon = system: HCC-2998 colon
MOLT-4 leukemia = system: MOLT-4 leukemia
CCRF-CEM leukemia = system: CCRF-CEM leukemia
SF-268 CNS = system: SF-268 CNS
OVCAR-5 ovarian = system: OVCAR-5 ovarian
K-562 leukemia = system: K-562 leukemia
CAKI-1 renal = system: CAKI-1 renal
TK-10 renal = system: TK-10 renal
SN12C renal = system: SN12C renal
OVCAR-8 ovarian = system: OVCAR-8 ovarian

| Compound | GI50 (HCC-2998 colon) [µM] | TGI (HCC-2998 colon) [µM] | GI50 (MOLT-4 leukemia) [µM] | TGI (MOLT-4 leukemia) [µM] | GI50 (CCRF-CEM leukemia) [µM] | TGI (CCRF-CEM leukemia) [µM] | GI50 (SF-268 CNS) [µM] | TGI (SF-268 CNS) [µM] | GI50 (OVCAR-5 ovarian) [µM] | TGI (OVCAR-5 ovarian) [µM] | GI50 (K-562 leukemia) [µM] | TGI (K-562 leukemia) [µM] | GI50 (CAKI-1 renal) [µM] | TGI (CAKI-1 renal) [µM] | GI50 (TK-10 renal) [µM] | TGI (TK-10 renal) [µM] | GI50 (SN12C renal) [µM] | TGI (SN12C renal) [µM] | GI50 (OVCAR-8 ovarian) [µM] | TGI (OVCAR-8 ovarian) [µM] |
| --- | --- | --- | --- | --- | --- | --- | --- | --- | --- | --- | --- | --- | --- | --- | --- | --- | --- | --- | --- | --- |
| O=C(Cc1csc2nc(-c3ccc(Br)cc3)cn12)N/N=C/c1ccccc1O | 3.48 | 12.7 | 2.35 | 10.8 | 1.81 | 8.41 | > 100 | > 100 | 5.51 | 31.9 | 0.0372 | 2.95 | 0.397 | 2.4 | 2.05 | 8.72 | 3.34 | 16 | 2.28 | 12.4 |
| NCC[PH+](c1ccccc1)c1ccccc1.NCC[PH+](c1ccccc1)c1ccccc1.[Cl-].[Pt+4] | > 100 | > 100 | > 51.3 | > 100 | 12.2 | > 73.2 | > 100 | > 100 | > 100 | > 100 | 26.5 | > 84.7 | > 100 | > 100 | > 100 | > 100 | > 100 | > 100 | > 100 | > 100 |
| Cc1nc2sc(C(=O)Nc3cccc(Cl)c3)c(N)c2cc1C(O)c1ccccc1 (stereo not given) | 1.98 | 10.5 | 0.611 | > 100 | 0.483 | > 100 | 2.66 | 28.3 | 2.41 | 18.1 | 0.488 | > 100 | 0.789 | 17 | 3.77 | 33.6 | 0.976 | 13.6 | 2.51 | > 100 |
| O=C(/C=C/c1ccccn1)c1ccccc1 | 15.4 | 29.9 | 3.1 | 27.6 | 2.43 | 6.61 | 19.4 | 36.4 | 6.52 | 24.1 | 2.53 | > 100 | 3.28 | 12.3 | 12.8 | 25.6 | 4.33 | 17.1 | 4.18 | 16.1 |
| COc1ccc2c(c1)CCC1C2CCC2(C)C(NC(=O)CCCCC3CCSS3)CCC12 (stereo not given) | 30.7 | > 100 | 4.15 | > 100 | 6.26 | > 100 | 6.85 | > 100 | > 100 | > 100 | 5.81 | > 100 | 23.9 | > 100 | 16.1 | > 100 | 16.4 | > 100 | > 100 | > 100 |
| Nc1c([N+](=O)[O-])ncn1C1OC(CO)C(O)C1O (stereo not given) | > 100 | > 100 | > 100 | > 100 | > 100 | > 100 | > 100 | > 100 | > 100 | > 100 | > 100 | > 100 | > 100 | > 100 | > 100 | > 100 | > 100 | > 100 | > 100 | > 100 |
| Cc1nc(Nc2ccc(Cl)c(Cl)c2)sc1C(/C=C/c1ccc2c(c1)OCO2)=N/Nc1ccc([N+](=O)[O-])cc1[N+](=O)[O-] | – | > 100 | – | > 56.2 | – | > 100 | – | > 100 | – | > 100 | – | > 100 | – | > 46.4 | – | > 94.4 | – | > 100 | – | > 100 |
| COC(=O)C1C(=O)NC2(C)CC1c1ccccc1O2 (stereo not given) | – | > 100 | – | > 100 | – | > 100 | – | > 100 | – | > 100 | – | > 100 | – | > 100 | – | > 100 | – | > 100 | – | > 100 |
| COc1ccc(-c2nn(-c3cccc(Cl)c3)cc2-c2c(C#N)c(=O)n3[nH]c(-c4ccc(C)o4)nc3c2C#N)cc1 | 7.43 | 45.7 | 3.23 | 24.3 | 2.45 | > 50 | 5.23 | > 50 | 13.6 | > 50 | 4.09 | > 50 | 6.8 | > 50 | 12.4 | > 50 | 5.3 | > 50 | 5.91 | > 50 |
| O=C(CC/C(CC(=O)c1ccc(Cl)cc1)=N\O)Nc1cccc(Cl)c1 | – | > 100 | – | > 100 | – | > 100 | – | > 100 | – | > 100 | – | > 100 | – | > 100 | – | > 100 | – | > 100 | – | > 100 |
